Test results as given in patent US12679843B2, “Pyrrolopyrimidine amines as complement inhibitors” (BioCryst Pharmaceuticals, Inc., priority 2020, dated 2026).

target: Factor D (Homo sapiens, UniProt P00746); test: Factor D esterolytic assay (Z-Lys-SBzl thioester substrate, DTNB, 405 nm); type: biochemical; conditions: substrate Z-Lys-SBzl 1.29 mM, 100 mM HEPES, 500 mM NaCl, pH 7.5, 10% DMSO, tested a minimum of three times
Procedure, shortened: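 Human Factor D hydrolysis of Z-Lys-SBzl (1.29 mM) monitored at 405 nm via DTNB thiol detection for 600 s, 690 nm background subtracted. Buffer 100 mM HEPES, 500 mM NaCl, pH 7.5, 10% DMSO; substrate added immediately or after room-temperature preincubation. IC50 from percent inhibition of rate, at least three tests.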

Sequence of Factor D (P00746 26-253): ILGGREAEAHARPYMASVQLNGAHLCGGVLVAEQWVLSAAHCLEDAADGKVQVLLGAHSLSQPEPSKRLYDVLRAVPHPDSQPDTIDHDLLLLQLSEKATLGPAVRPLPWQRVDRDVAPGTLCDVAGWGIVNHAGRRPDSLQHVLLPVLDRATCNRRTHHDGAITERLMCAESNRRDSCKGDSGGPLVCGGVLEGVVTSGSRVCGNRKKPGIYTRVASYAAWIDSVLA

How did the IC50 turn out when `Cc1cc(C(F)(F)F)cc2c3c(N)ncnc3n(CC(=O)N3CCC[C@H]3C(=O)Nc3cccc(Br)n3)c12` [Compound 306a, (S)-1-(2-(4-amino-8-methyl-6-(trifluoromethyl)-9H-pyrimido[4,5-b]indol-9-yl)acetyl)-N-(6-bromopyridin-2-yl)pyrrolidine-2-carboxamide] was run?
The IC50 was < 100 nM.

With `Nc1ncnc2c1c1nc(-c3ccncc3)ccc1n2CC(=O)N1[C@@H]2C[C@@H]2C[C@H]1C(=O)Nc1cccc(Br)n1` [Compound 307c, (1R,3S,5R)-2-(2-(4-amino-6-(pyridin-4-yl)-9H-pyrido[2′,3′:4,5]pyrrolo[2,3-d]pyrimidin-9-yl)acetyl)-N-(6-bromopyridin-2-yl)-2-azabicyclo[3.1.0]hexane-3-carboxamide] as the molecule, how does the IC50 read?
Its IC50 is < 100 nM.

For `Cc1ncc(-c2cc(C)c3c(c2)c2c(N)ncnc2n3CC(=O)N2[C@@H]3C[C@@H]3C[C@H]2C(=O)Nc2cccc(Br)n2)cn1` [Compound 308c, (1R,3S,5R)-2-(2-(4-amino-8-methyl-6-(2-methylpyrimidin-5-yl)-9H-pyrimido[4,5-b]indol-9-yl)acetyl)-N-(6-bromopyridin-2-yl)-2-azabicyclo[3.1.0]hexane-3-carboxamide], which IC50 is on record?
The IC50 was < 100 nM.

`Cc1ncc(-c2cc(C)c3c(c2)c2c(N)ncnc2n3CC(=O)N2[C@H](C(=O)Nc3cccc(Br)n3)C[C@@]3(C)C[C@@H]23)cn1` [Compound 309a, (1R,3S,5R)-2-(2-(4-amino-8-methyl-6-(2-methylpyrimidin-5-yl)-9H-pyrimido[4,5-b]indol-9-yl)acetyl)-N-(6-bromopyridin-2-yl)-5-methyl-2-azabicyclo[3.1.0]hexane-3-carboxamide] was tested. Which IC50 did it give?
Its IC50 is < 100 nM.

With `Cc1ncc(-c2cc(C)c3c(c2)c2c(N)ncnc2n3CC(=O)N2[C@@H]3C[C@@H]3C[C@H]2C(=O)Nc2nc(Br)ccc2C)cn1` [Compound 310a, (1R,3S,5R)-2-(2-(4-amino-8-methyl-6-(2-methylpyrimidin-5-yl)-9H-pyrimido[4,5-b]indol-9-yl)acetyl)-N-(6-bromo-3-methylpyridin-2-yl)-2-azabicyclo[3.1.0]hexane-3-carboxamide] as the molecule, how does the IC50 read?
The IC50 was < 100 nM.

`Cc1ncc(-c2cc(C)c3c(c2)c2c(N)ncnc2n3CC(=O)N2[C@H](C(=O)Nc3nc(Br)ccc3C)C[C@@]3(C)C[C@@H]23)cn1` [Compound 311a, (1R,3S,5R)-2-(2-(4-amino-8-methyl-6-(2-methylpyrimidin-5-yl)-9H-pyrimido[4,5-b]indol-9-yl)acetyl)-N-(6-bromo-3-methylpyridin-2-yl)-5-methyl-2-azabicyclo[3.1.0]hexane-3-carboxamide] was tested. Which IC50 did it give?
Its IC50 is < 100 nM.

`Cc1ncc(-c2cc(C)c3c(c2)c2c(N)ncnc2n3CC(=O)N2C[C@H](F)C[C@H]2C(=O)Nc2cccc(Br)n2)cn1` [Compound 312a, (2S,4R)-1-(2-(4-amino-8-methyl-6-(2-methylpyrimidin-5-yl)-9H-pyrimido[4,5-b]indol-9-yl)acetyl)-N-(6-bromopyridin-2-yl)-4-fluoropyrrolidine-2-carboxamide] was tested. Which IC50 did it give?
The IC50 was < 100 nM.

How did the IC50 turn out when `Cc1ncc(NC(=O)[C@@H]2C[C@H]3C[C@H]3N2C(=O)Cn2c3ncnc(N)c3c3cc(C(F)(F)F)cc(C)c32)nc1Br` [Compound 313b, (1R,3S,5R)-2-(2-(4-amino-8-methyl-6-(trifluoromethyl)-9H-pyrimido[4,5-b]indol-9-yl)acetyl)-N-(6-bromo-5-methylpyrazin-2-yl)-2-azabicyclo[3.1.0]hexane-3-carboxamide] was run?
Its IC50 is < 100 nM.

For `Cc1cc(C)c2c(c1)c1c(N)ncnc1n2CC(=O)N1[C@H](C(=O)Nc2cncc(Br)n2)C[C@@]2(C)C[C@@H]12` [Compound 314a, (1R,3S,5R)-2-(2-(4-amino-6,8-dimethyl-9H-pyrimido[4,5-b]indol-9-yl)acetyl)-N-(6-bromopyrazin-2-yl)-5-methyl-2-azabicyclo[3.1.0]hexane-3-carboxamide], which IC50 is on record?
The IC50 was < 100 nM.

How did the IC50 turn out when `Cc1ncc(-c2cc(C)c3c(c2)c2c(N)ncnc2n3CC(=O)N2[C@H](C(=O)Nc3cccc(Cl)n3)C[C@@]3(C)C[C@@H]23)cn1` [Compound 315a, (1R,3S,5R)-2-(2-(4-amino-8-methyl-6-(2-methylpyrimidin-5-yl)-9H-pyrimido[4,5-b]indol-9-yl)acetyl)-N-(6-chloropyridin-2-yl)-5-methyl-2-azabicyclo[3.1.0]hexane-3-carboxamide] was run?
The IC50 was < 100 nM.

How did the IC50 turn out when `Cc1ncc(-c2cc(C)c3c(c2)c2c(N)ncnc2n3CC(=O)N2C[C@](C)(F)C[C@H]2C(=O)Nc2cccc(Br)n2)cn1` [Compound 316a, (2S,4R)-1-(2-(4-amino-8-methyl-6-(2-methylpyrimidin-5-yl)-9H-pyrimido[4,5-b]indol-9-yl)acetyl)-N-(6-bromopyridin-2-yl)-4-fluoro-4-methylpyrrolidine-2-carboxamide] was run?
The IC50 was < 100 nM.

`Cc1cc(C(F)(F)F)cc2c3c(N)ncnc3n(CC(=O)N3[C@@H]4C[C@@H]4C[C@H]3C(=O)Nc3nc(Br)ccc3F)c12` [Compound 317c, (1R,3S,5R)-2-(2-(4-amino-8-methyl-6-(trifluoromethyl)-9H-pyrimido[4,5-b]indol-9-yl)acetyl)-N-(6-bromo-3-fluoropyridin-2-yl)-2-azabicyclo[3.1.0]hexane-3-carboxamide] was tested. Which IC50 did it give?
The IC50 was 100 to 1000 nM.

How did the IC50 turn out when `Cc1ccc(Cl)nc1NC(=O)[C@@H]1C[C@H]2C[C@H]2N1C(=O)Cn1c2ncnc(N)c2c2cc(C(F)(F)F)cc(C)c21` [Compound 318c, (1R,3S,5R)-2-(2-(4-amino-8-methyl-6-(trifluoromethyl)-9H-pyrimido[4,5-b]indol-9-yl)acetyl)-N-(6-chloro-3-methylpyridin-2-yl)-2-azabicyclo[3.1.0]hexane-3-carboxamide] was run?
Its IC50 is < 100 nM.

How did the IC50 turn out when `Cc1cc(C(F)(F)F)cc2c3c(N)ncnc3n(CC(=O)N3[C@@H]4C[C@@H]4C[C@H]3C(=O)Nc3nc(Cl)ccc3F)c12` [Compound 319c, (1R,3S,5R)-2-(2-(4-amino-8-methyl-6-(trifluoromethyl)-9H-pyrimido[4,5-b]indol-9-yl)acetyl)-N-(6-chloro-3-fluoropyridin-2-yl)-2-azabicyclo[3.1.0]hexane-3-carboxamide] was run?
Its IC50 is < 100 nM.

`Cc1cc(C(F)(F)F)cc2c3c(N)ncnc3n(CC(=O)N3C[C@](C)(F)C[C@H]3C(=O)Nc3cccc(Cl)n3)c12` [Compound 320c, (2S,4R)-1-(2-(4-amino-8-methyl-6-(trifluoromethyl)-9H-pyrimido[4,5-b]indol-9-yl)acetyl)-N-(6-chloropyridin-2-yl)-4-fluoro-4-methylpyrrolidine-2-carboxamide] was tested. Which IC50 did it give?
The IC50 was < 100 nM.

With `Cc1cc(C(F)(F)F)cc2c3c(N)ncnc3n(CC(=O)N3C[C@H](F)C[C@H]3C(=O)Nc3cncc(Br)n3)c12` [Compound 321d, (2S,4R)-1-(2-(4-amino-8-methyl-6-(trifluoromethyl)-9H-pyrimido[4,5-b]indol-9-yl)acetyl)-N-(6-bromopyrazin-2-yl)-4-fluoropyrrolidine-2-carboxamide] as the molecule, how does the IC50 read?
Its IC50 is < 100 nM.

With `Cc1cc(F)c(Br)nc1NC(=O)[C@@H]1C[C@H]2C[C@H]2N1C(=O)Cn1c2ncnc(N)c2c2cc(C(F)(F)F)cc(C)c21` [Compound 322c, (1R,3S,5R)-2-(2-(4-amino-8-methyl-6-(trifluoromethyl)-9H-pyrimido[4,5-b]indol-9-yl)acetyl)-N-(6-bromo-5-fluoro-3-methylpyridin-2-yl)-2-azabicyclo[3.1.0]hexane-3-carboxamide] as the molecule, how does the IC50 read?
Its IC50 is < 100 nM.
